# Source: ChEMBL document CHEMBL4028802, “DILIrank: the largest reference drug list ranked by the risk for developing drug-induced liver injury in humans” (Drug Discov Today, 2016)
# What was measured:
# Homo sapiens [1] = species on record: Homo sapiens; assay: Liver toxicity in human assessed as induction of drug-induced liver injury by measuring severity class index
# Homo sapiens [2] = species on record: Homo sapiens; assay: Liver toxicity in human assessed as induction of drug-induced liver injury by measuring verified drug-induced liver injury concern status
# For DILI severity class in this document: key of the grades not given here.
Compound,DILI_severity_class (Homo sapiens [1]),DILI_Concern (Homo sapiens [2])
COc1ccc2c3c1O[C@H]1C(=O)CC[C@@]4(O)[C@@H](C2)N(C)CC[C@]314 [OXYCODONE],0,No-Dili-Concern
C[C@]12C/C(=C/O)C(=O)C[C@@H]1CC[C@@H]1[C@@H]2CC[C@@]2(C)[C@H]1CC[C@]2(C)O [OXYMETHOLONE],7,Most-Dili-Concern
CN1CC[C@]23c4c5ccc(O)c4O[C@H]2C(=O)CC[C@@]3(O)[C@H]1C5 [OXYMORPHONE],0,No-Dili-Concern
O=C1Nc2ccccc2C1(c1ccc(O)cc1)c1ccc(O)cc1 [OXYPHENISATINE],8,Most-Dili-Concern
CN(C)[C@@H]1C(O)=C(C(N)=O)C(=O)[C@@]2(O)C(O)=C3C(=O)c4c(O)cccc4[C@@](C)(O)[C@H]3[C@H](O)[C@@H]12 [OXYTETRACYCLINE],2,Ambiguous-Dili-Concern
CC[C@H](C)[C@@H]1NC(=O)[C@H](Cc2ccc(O)cc2)NC(=O)[C@@H](N)CSSC[C@@H](C(=O)N2CCC[C@H]2C(=O)N[C@@H](CC(C)C)C(=O)NCC(N)=O)NC(=O)[C@H](CC(N)=O)NC(=O)[C@H](CCC(N)=O)NC1=O [OXYTOCIN],0,No-Dili-Concern
CC(=O)O[C@H]1C(=O)[C@@]2(C)[C@H]([C@H](OC(=O)c3ccccc3)[C@]3(O)C[C@H](OC(=O)[C@H](O)[C@@H](NC(=O)c4ccccc4)c4ccccc4)C(C)=C1C3(C)C)[C@]1(OC(C)=O)CO[C@@H]1C[C@@H]2O [PACLITAXEL],4,Less-Dili-Concern
CONC(=N)c1ccc(-c2ccc(-c3ccc(C(=N)NOC)cc3)o2)cc1 [PAFURAMIDINE],8,Most-Dili-Concern
Cc1nc2n(c(=O)c1CCN1CCC(c3noc4cc(F)ccc34)CC1)CCCC2O (stereo unspecified) [PALIPERIDONE],0,No-Dili-Concern
O=C1c2cccc3c2[C@H](CCC3)CN1[C@@H]1CN2CCC1CC2 [PALONOSETRON],4,Ambiguous-Dili-Concern
CC(C)(N)CO.Cn1c(=O)c2[nH]c(Br)nc2n(C)c1=O [PAMABROM],0,No-Dili-Concern
NCCC(O)(P(=O)(O)O)P(=O)(O)O [PAMIDRONIC ACID],3,Ambiguous-Dili-Concern
CC(=O)O[C@H]1C[C@@H]2CC[C@@H]3[C@H](CC[C@@]4(C)[C@H]3C[C@H]([N+]3(C)CCCCC3)[C@@H]4OC(C)=O)[C@@]2(C)C[C@@H]1[N+]1(C)CCCCC1 [PANCURONIUM],0,No-Dili-Concern
COc1ccnc(C[S+]([O-])c2nc3ccc(OC(F)F)cc3[nH]2)c1OC (stereo unspecified) [PANTOPRAZOLE],3,Less-Dili-Concern
COc1ccc(Cc2nccc3cc(OC)c(OC)cc23)cc1OC [PAPAVERINE],5,Most-Dili-Concern
C[C@H](/C=C/[C@H](C)C(C)(C)O)[C@H]1CC[C@H]2/C(=C/C=C3C[C@@H](O)C[C@H](O)C3)CCC[C@]12C [PARICALCITOL],3,Ambiguous-Dili-Concern
NC[C@@H]1O[C@H](O[C@H]2[C@@H](O)[C@H](O[C@@H]3[C@@H](O)[C@H](N)C[C@H](N)[C@H]3O[C@H]3O[C@H](CO)[C@@H](O)[C@H](O)[C@H]3N)O[C@@H]2CO)[C@H](N)[C@@H](O)[C@@H]1O [PAROMOMYCIN],0,No-Dili-Concern
Fc1ccc([C@@H]2CCNC[C@H]2COc2ccc3c(c2)OCO3)cc1 [PAROXETINE],8,Less-Dili-Concern
Nc1nc2[nH]cc(CCc3ccc(C(=O)N[C@@H](CCC(=O)O)C(=O)O)cc3)c2c(=O)[nH]1 [PEMETREXED],3,Ambiguous-Dili-Concern
NC1=NC(=O)C(c2ccccc2)O1 (stereo unspecified) [PEMOLINE],8,Most-Dili-Concern

Compound,DILI_severity_class (Homo sapiens [1]),DILI_Concern (Homo sapiens [2])
CC(C)(C)NC[C@H](O)COc1ccccc1C1CCCC1 [PENBUTOLOL],0,No-Dili-Concern
CC(C)(S)[C@@H](N)C(=O)O [PENICILLAMINE],2,Less-Dili-Concern
CC1(C)S[C@@H]2[C@H](NC(=O)Cc3ccccc3)C(=O)N2[C@H]1C(=O)O [PENICILLIN G],3,Less-Dili-Concern
CC1(C)S[C@@H]2[C@H](NC(=O)COc3ccccc3)C(=O)N2[C@H]1C(=O)O [PENICILLIN V],0,No-Dili-Concern
CSCC[C@H](NC(=O)[C@H](Cc1c[nH]c2ccccc12)NC(=O)CCNC(=O)OC(C)(C)C)C(=O)N[C@@H](CC(=O)O)C(=O)N[C@@H](Cc1ccccc1)C(N)=O [PENTAGASTRIN],0,No-Dili-Concern
N=C(N)c1ccc(OCCCCCOc2ccc(C(=N)N)cc2)cc1 [PENTAMIDINE],3,Less-Dili-Concern
O=C(O)CN(CCN(CC(=O)O)CC(=O)O)CCN(CC(=O)O)CC(=O)O [PENTETIC ACID],0,No-Dili-Concern
CCCC(C)C1(CC)C(=O)NC(=O)NC1=O (stereo unspecified) [PENTOBARBITAL],3,Ambiguous-Dili-Concern
OC[C@H]1O[C@@H](n2cnc3c2NC=NC[C@H]3O)C[C@@H]1O [PENTOSTATIN],3,Most-Dili-Concern
CC(=O)CCCCn1c(=O)c2c(ncn2C)n(C)c1=O [PENTOXIFYLLINE],5,Ambiguous-Dili-Concern
CCCN1C[C@H](CSC)C[C@@H]2c3cccc4[nH]cc(c34)C[C@H]21 [PERGOLIDE],3,Ambiguous-Dili-Concern
C1CCC(C(CC2CCCCN2)C2CCCCC2)CC1 (stereo unspecified) [PERHEXILINE],8,Most-Dili-Concern
CCC[C@H](N[C@@H](C)C(=O)N1[C@H](C(=O)O)C[C@@H]2CCCC[C@@H]21)C(=O)OCC [PERINDOPRIL],3,Ambiguous-Dili-Concern
OCCN1CCN(CCCN2c3ccccc3Sc3ccc(Cl)cc32)CC1 [PERPHENAZINE],3,Less-Dili-Concern
C[C@H]1[C@H](c2ccccc2)OCCN1C [PHENDIMETRAZINE],0,No-Dili-Concern
NNCCc1ccccc1 [PHENELZINE],3,Less-Dili-Concern
CCC1(c2ccccc2)C(=O)NC(=O)NC1=O [PHENOBARBITAL],3,Less-Dili-Concern
CC(COc1ccccc1)N(CCCl)Cc1ccccc1 (stereo unspecified) [PHENOXYBENZAMINE],0,No-Dili-Concern
CC(COc1ccccc1)NN (stereo unspecified) [PHENOXYPROPAZINE],8,Most-Dili-Concern
CC(C)(N)Cc1ccccc1 [PHENTERMINE],0,Less-Dili-Concern

Compound,DILI_severity_class (Homo sapiens [1]),DILI_Concern (Homo sapiens [2])
Cc1ccc(N(CC2=NCCN2)c2cccc(O)c2)cc1 [PHENTOLAMINE],0,No-Dili-Concern
O=C1NC(=O)C(c2ccccc2)(c2ccccc2)N1 [PHENYTOIN],8,Most-Dili-Concern
CNC(=O)Oc1ccc2c(c1)[C@]1(C)CCN(C)[C@@H]1N2C [PHYSOSTIGMINE],0,No-Dili-Concern
CC1=C(C/C=C(\C)CCC[C@H](C)CCC[C@H](C)CCCC(C)C)C(=O)c2ccccc2C1=O [PHYTONADIONE],0,No-Dili-Concern
CC[C@@H]1C(=O)OC[C@@H]1Cc1cncn1C [PILOCARPINE],3,Ambiguous-Dili-Concern
O=c1[nH]c2ccccc2n1C1CCN(CCCC(c2ccc(F)cc2)c2ccc(F)cc2)CC1 [PIMOZIDE],0,No-Dili-Concern
CC(C)NCC(O)COc1cccc2[nH]ccc12 (stereo unspecified) [PINDOLOL],0,No-Dili-Concern
CCc1ccc(CCOc2ccc(CC3SC(=O)NC3=O)cc2)nc1 (stereo unspecified) [PIOGLITAZONE],3,Less-Dili-Concern
NC(=O)C1CCN(CCCN2c3ccccc3Sc3ccc(Cl)cc32)CC1 [PIPAMAZINE],8,Most-Dili-Concern
CCN1CCN(C(=O)N[C@@H](C(=O)N[C@@H]2C(=O)N3[C@@H]2SC(C)(C)[C@@H]3C(=O)O)c2ccccc2)C(=O)C1=O [PIPERACILLIN],3,Ambiguous-Dili-Concern
CN1C(C(=O)Nc2ccccn2)=C(O)c2ccccc2S1(=O)=O [PIROXICAM],3,Less-Dili-Concern
CC(C(=O)O)c1ccc(N2CC=CC2)c(Cl)c1 (stereo unspecified) [PIRPROFEN],8,Most-Dili-Concern
O=C(O)C[C@H](O)C[C@H](O)/C=C/c1c(C2CC2)nc2ccccc2c1-c1ccc(F)cc1 [PITAVASTATIN],3,Ambiguous-Dili-Concern
c1cc(CN2CCCNCCNCCCNCC2)ccc1CN1CCCNCCNCCCNCC1 [PLERIXAFOR],0,No-Dili-Concern
CN1C(CSCC(F)(F)F)Nc2cc(Cl)c(S(N)(=O)=O)cc2S1(=O)=O (stereo unspecified) [POLYTHIAZIDE],2,Ambiguous-Dili-Concern
CC[C@@H]([C@H](C)O)n1ncn(-c2ccc(N3CCN(c4ccc(OC[C@@H]5CO[C@@](Cn6cncn6)(c6ccc(F)cc6F)C5)cc4)CC3)cc2)c1=O [POSACONAZOLE],8,Ambiguous-Dili-Concern
C#CCC(Cc1cnc2nc(N)nc(N)c2n1)c1ccc(C(=O)N[C@@H](CCC(=O)O)C(=O)O)cc1 (stereo partly specified) [PRALATREXATE],3,Ambiguous-Dili-Concern
C[n+]1ccccc1/C=N/O [PRALIDOXIME],3,Ambiguous-Dili-Concern
